# Laboratory results: PubChem BioAssay (NCI)
#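 Cultured in 96-well plates, cells were exposed to test compound for 48 hours across five concentrations. GI50 marks 50% less growth. TGI is the concentration that stops growth completely.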
# How the values were obtained:
# Assay in all cases: inhibition of tumour cell growth, NCI panel, 48 h
# U251 CNS = system: U251 CNS
# CAKI-1 renal = system: CAKI-1 renal
# NCI/ADR-RES ovarian = system: NCI/ADR-RES ovarian
# NCI-H23 lung = system: NCI-H23 lung
# OVCAR-8 ovarian = system: OVCAR-8 ovarian
# MDA-MB-435 = system: MDA-MB-435
# RXF 393 renal = system: RXF 393 renal
# NCI-H522 lung = system: NCI-H522 lung
# HOP-62 NSCLC = system: HOP-62 NSCLC
# OVCAR-4 ovarian = system: OVCAR-4 ovarian
# 786-0 renal = system: 786-0 renal
# A498 renal = system: A498 renal
# SNB-19 CNS = system: SNB-19 CNS
# M14 melanoma = system: M14 melanoma
# PC-3 prostate = system: PC-3 prostate
# OVCAR-3 ovarian = system: OVCAR-3 ovarian
# HCT-116 colon = system: HCT-116 colon
# MOLT-4 leukemia = system: MOLT-4 leukemia
# SK-OV-3 ovarian = system: SK-OV-3 ovarian
# HCT-15 colon = system: HCT-15 colon
# SK-MEL-28 melanoma = system: SK-MEL-28 melanoma
# NCI-H460 lung = system: NCI-H460 lung
# MCF7 breast = system: MCF7 breast
# MALME-3M melanoma = system: MALME-3M melanoma
# SF-268 CNS = system: SF-268 CNS
# SW-620 colon = system: SW-620 colon
# SF-539 CNS = system: SF-539 CNS
# SF-295 CNS = system: SF-295 CNS
# HOP-92 NSCLC = system: HOP-92 NSCLC
# NCI-H226 lung = system: NCI-H226 lung
# CCRF-CEM leukemia = system: CCRF-CEM leukemia
# HCC-2998 colon = system: HCC-2998 colon
# SNB-75 CNS = system: SNB-75 CNS
# KM12 colon = system: KM12 colon
# OVCAR-5 ovarian = system: OVCAR-5 ovarian
# K-562 leukemia = system: K-562 leukemia
# BT-549 breast = system: BT-549 breast
# MDA-MB-231 breast = system: MDA-MB-231 breast
# UO-31 renal = system: UO-31 renal
# A549 NSCLC = system: A549 NSCLC
# HT29 colon = system: HT29 colon
# DU-145 prostate = system: DU-145 prostate
# COLO 205 colon = system: COLO 205 colon
# T-47D breast = system: T-47D breast
# SK-MEL-5 melanoma = system: SK-MEL-5 melanoma
# SR leukemia = system: SR leukemia
# SK-MEL-2 melanoma = system: SK-MEL-2 melanoma
# HS 578T breast = system: HS 578T breast
# TK-10 renal = system: TK-10 renal
# HL-60(TB) leukemia = system: HL-60(TB) leukemia
# LOX IMVI melanoma = system: LOX IMVI melanoma
# UACC-257 melanoma = system: UACC-257 melanoma
# SN12C renal = system: SN12C renal
# UACC-62 melanoma = system: UACC-62 melanoma
# IGROV1 ovarian = system: IGROV1 ovarian
# ACHN renal = system: ACHN renal
# RPMI-8226 leukemia = system: RPMI-8226 leukemia
smiles,measurement,setting,value
Cn1cc(C2=C(c3c4n(c5ccccc35)CCC(CN)C4)C(=O)NC2=O)c2ccccc21 (centres undefined),GI50,U251 CNS,2.74 µM
same,TGI,U251 CNS,6 µM
same,GI50,CAKI-1 renal,3.91 µM
same,TGI,CAKI-1 renal,8.75 µM
same,GI50,NCI/ADR-RES ovarian,14.9 µM
same,TGI,NCI/ADR-RES ovarian,25 µM
same,GI50,NCI-H23 lung,3.6 µM
same,TGI,NCI-H23 lung,7.74 µM
same,GI50,OVCAR-8 ovarian,3.77 µM
same,TGI,OVCAR-8 ovarian,8.92 µM
same,GI50,MDA-MB-435,2.52 µM
same,TGI,MDA-MB-435,5.97 µM
same,GI50,RXF 393 renal,3.01 µM
same,TGI,RXF 393 renal,6.47 µM
same,GI50,NCI-H522 lung,3.84 µM
same,TGI,NCI-H522 lung,7.46 µM
same,GI50,HOP-62 NSCLC,3.12 µM
same,TGI,HOP-62 NSCLC,6.62 µM
same,GI50,OVCAR-4 ovarian,2.5 µM
same,TGI,OVCAR-4 ovarian,7.42 µM
same,GI50,786-0 renal,4.25 µM
same,TGI,786-0 renal,8.38 µM
same,GI50,A498 renal,4.02 µM
same,TGI,A498 renal,7.6 µM
same,GI50,SNB-19 CNS,3.96 µM
same,TGI,SNB-19 CNS,9.26 µM
same,GI50,M14 melanoma,3.46 µM
same,TGI,M14 melanoma,7.58 µM
same,GI50,PC-3 prostate,2.77 µM
same,TGI,PC-3 prostate,6.59 µM
same,GI50,OVCAR-3 ovarian,3.58 µM
same,TGI,OVCAR-3 ovarian,7.63 µM
same,GI50,HCT-116 colon,2 µM
same,TGI,HCT-116 colon,5.77 µM
same,GI50,MOLT-4 leukemia,2.19 µM
same,TGI,MOLT-4 leukemia,6.73 µM
same,GI50,SK-OV-3 ovarian,4.11 µM
same,TGI,SK-OV-3 ovarian,9.16 µM
same,GI50,HCT-15 colon,4.02 µM
same,TGI,HCT-15 colon,8.65 µM
same,GI50,SK-MEL-28 melanoma,3.82 µM
same,TGI,SK-MEL-28 melanoma,7.31 µM
same,GI50,NCI-H460 lung,3.32 µM
same,TGI,NCI-H460 lung,7.05 µM
same,GI50,MCF7 breast,2.06 µM
same,TGI,MCF7 breast,6.5 µM
same,GI50,MALME-3M melanoma,2.75 µM
same,TGI,MALME-3M melanoma,6.07 µM
same,GI50,SF-268 CNS,3.95 µM
same,TGI,SF-268 CNS,7.65 µM
same,GI50,SW-620 colon,2.96 µM
same,TGI,SW-620 colon,6.69 µM
same,GI50,SF-539 CNS,3.63 µM
same,TGI,SF-539 CNS,7.16 µM
same,GI50,SF-295 CNS,2.31 µM
same,TGI,SF-295 CNS,6.09 µM
same,GI50,HOP-92 NSCLC,5.25 µM
same,TGI,HOP-92 NSCLC,12.3 µM
same,GI50,NCI-H226 lung,3.34 µM
same,TGI,NCI-H226 lung,11.1 µM
same,GI50,CCRF-CEM leukemia,2.43 µM
same,TGI,CCRF-CEM leukemia,7.23 µM
same,GI50,HCC-2998 colon,3.49 µM
same,TGI,HCC-2998 colon,7.14 µM
same,GI50,SNB-75 CNS,0.594 µM
same,TGI,SNB-75 CNS,4.05 µM
same,GI50,KM12 colon,3.42 µM
same,TGI,KM12 colon,6.92 µM
same,GI50,OVCAR-5 ovarian,2.94 µM
same,TGI,OVCAR-5 ovarian,7.15 µM
same,GI50,K-562 leukemia,3.54 µM
same,TGI,K-562 leukemia,8.27 µM
same,GI50,BT-549 breast,4.06 µM
same,TGI,BT-549 breast,7.75 µM
same,GI50,MDA-MB-231 breast,2.53 µM
same,TGI,MDA-MB-231 breast,6.05 µM
same,GI50,UO-31 renal,3.25 µM
same,TGI,UO-31 renal,6.58 µM
same,GI50,A549 NSCLC,3.05 µM
same,TGI,A549 NSCLC,7.83 µM
same,GI50,HT29 colon,2.67 µM
same,TGI,HT29 colon,5.95 µM
same,GI50,DU-145 prostate,3.63 µM
same,TGI,DU-145 prostate,7.02 µM
same,GI50,COLO 205 colon,1.63 µM
same,TGI,COLO 205 colon,5.15 µM
same,GI50,T-47D breast,3.17 µM
same,TGI,T-47D breast,7.49 µM
same,GI50,SK-MEL-5 melanoma,3.99 µM
same,TGI,SK-MEL-5 melanoma,7.82 µM
same,GI50,SR leukemia,2.17 µM
same,TGI,SR leukemia,7.81 µM
same,GI50,SK-MEL-2 melanoma,4.15 µM
same,TGI,SK-MEL-2 melanoma,7.92 µM
same,GI50,HS 578T breast,1.55 µM
same,TGI,HS 578T breast,8.2 µM
same,GI50,TK-10 renal,2.62 µM
same,TGI,TK-10 renal,5.58 µM
same,GI50,HL-60(TB) leukemia,4.13 µM
same,TGI,HL-60(TB) leukemia,8.77 µM
same,GI50,LOX IMVI melanoma,3.83 µM
same,TGI,LOX IMVI melanoma,7.53 µM
same,GI50,UACC-257 melanoma,3.23 µM
same,TGI,UACC-257 melanoma,6.68 µM
same,GI50,SN12C renal,2.72 µM
same,TGI,SN12C renal,6.56 µM
same,GI50,UACC-62 melanoma,3 µM
same,TGI,UACC-62 melanoma,6.21 µM
same,GI50,IGROV1 ovarian,4 µM
same,TGI,IGROV1 ovarian,8 µM
same,GI50,ACHN renal,3.2 µM
same,TGI,ACHN renal,7.02 µM
same,GI50,RPMI-8226 leukemia,3.93 µM
same,TGI,RPMI-8226 leukemia,9.61 µM
